# What was measured:
# PD-1/PD-L1 = PD-1/PD-L1 (Homo sapiens (Human), UniProt Q9NZQ7); assay: PD-1/PD-L1 biochemical protein-protein interaction assay (ALPHA); assay type: binding; conditions: 0.3 nM His tagged PD-L1, 2.5 nM biotinylated Fc-PD-1, Table 3B, read-out: IC50 PD-L1-PD1
# PD-L1 = PD-L1 (Homo sapiens (Human), UniProt Q9NZQ7); assay: PD-L1/PD-L1 dimerization biochemical protein-protein interaction assay (ALPHA); assay type: binding; conditions: 0.5 nM His tagged PD-L1 and 0.5 nM FLAG tagged PD-L1, Table 4B, read-out: AC50 PDL1 Dimer 1 nM
# PD-L1, sequence (Q9NZQ7 19-238): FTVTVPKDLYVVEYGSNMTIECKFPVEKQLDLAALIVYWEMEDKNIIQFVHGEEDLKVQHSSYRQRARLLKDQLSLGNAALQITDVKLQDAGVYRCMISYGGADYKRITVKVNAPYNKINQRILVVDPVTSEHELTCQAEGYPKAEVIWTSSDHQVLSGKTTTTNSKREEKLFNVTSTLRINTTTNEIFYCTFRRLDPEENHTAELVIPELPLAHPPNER
# PD-L1, sequence (Q9NZQ7 19-238): as above
# PD-1/PD-L1, sequence (Q9NZQ7 19-238): as above
SMILES,IC50 (PD-1/PD-L1) [nM],AC50 (PD-L1) [nM]
COc1nc(-c2cccc(-c3cccc4c3CC[C@@H]4Oc3nc(OC)c(CN4CC5(C(=O)O)CCC4CC5)cc3Cl)c2C)ccc1CNC[C@@H]1CCC(=O)N1 [B-77],0.064,60.4
COc1nc(-c2cccc(-c3cccc4c3CC[C@@H]4Oc3nc(OC)c(CN4CC[C@@H](C(=O)O)C4)cc3Cl)c2C)ccc1CNC[C@@H]1CCC(=O)N1 [B-78],0.064,57.9
COc1nc(-c2cccc(-c3cccc4c3CC[C@@H]4Oc3nc(OC)c(CN4CC[C@@H](C(=O)O)C4)cc3Cl)c2Cl)ccc1CN1CC(C)(O)C1 [B-85],0.064,50.3
CNC(=O)C1CCN(Cc2cc(Cl)c(O[C@H]3CCc4c(-c5cccc(-c6ccc(CN7CC(C)(O)C7)c(OC)n6)c5Cl)cccc43)nc2OC)C1 (some centres unmarked) [B-86],0.235,109
CNC(=O)C1CCN(Cc2ccc(-c3cccc(-c4cccc5c4CC[C@@H]5Oc4nc(OC)c(CN5CCC(C(=O)NC)C5)cc4Cl)c3Cl)nc2OC)C1 (some centres unmarked) [B-87],0.064,90.7
CNC(=O)C1CCN(Cc2cc(Cl)c(O[C@H]3CCc4c(-c5cccc(-c6ccc(CNC[C@@H]7CCC(=O)N7)c(OC)n6)c5Cl)cccc43)nc2OC)C1 (some centres unmarked) [B-88],0.064,26.4
CNC(=O)CCNCc1cc(Cl)c(O[C@H]2CCc3c(-c4cccc(-c5ccc(CNC[C@@H]6CCC(=O)N6)c(OC)n5)c4Cl)cccc32)nc1OC [B-90],0.111,18.7
COc1nc(O[C@H]2CCc3c(-c4cccc(-c5cnc([C@H](C)NC[C@@H]6CCC(=O)N6)c(OC)n5)c4Cl)cccc32)c(Cl)cc1CN1CC[C@@H](C(=O)O)C1 [B-91],0.064,33.8
COc1nc(-c2cccc(-c3cccc4c3CC[C@@H]4Oc3nc(OC)c(CN4C[C@@H]5CC[C@]5(C(=O)O)C4)cc3Cl)c2Cl)ccc1CNC[C@@H]1CCC(=O)N1 [B-93],0.064,55
COc1nc(-c2cccc(-c3cccc4c3CC[C@@H]4Oc3nc(OC)c(CN4C[C@@H]5C[C@]5(C(=O)O)C4)cc3Cl)c2Cl)ccc1CNC[C@@H]1CCC(=O)N1 [B-95],0.064,36.2
COc1nc(O[C@H]2CCc3c(-c4cccc(-c5cnc(CNC[C@@H]6CCC(=O)N6)cn5)c4Cl)cccc32)c(Cl)cc1CN1CC(C(=O)O)C1 [B-96],0.064,48.7
COc1nc(-c2cccc(-c3cccc4c3CC[C@@H]4Oc3nc(OC)c(CN4CC5CC5(C(=O)O)C4)cc3Cl)c2Cl)ccc1CNC[C@@H]1CCC(=O)N1 (some centres unmarked) [B-99],0.086,67.9
COc1nc(-c2cccc(-c3cccc4c3CC[C@@H]4Oc3nc(OC)c(CN4C[C@H](C(=O)O)[C@@H](C)C4)cc3Cl)c2Cl)ccc1CNC[C@@H]1CCC(=O)N1 [B-106],0.064,41.3
COc1nc(-c2cccc(-c3cccc4c3CC[C@@H]4Oc3nc(OC)c(CN4CCC(C(=O)O)CC4)cc3Cl)c2Cl)ccc1CNC[C@@H]1CCC(=O)N1 [B-115],0.064,26.3
COc1nc(O[C@H]2CCc3c(-c4cccc(-c5ccc(CNC[C@@H]6CCC(=O)N6)c(Cl)c5)c4Cl)cccc32)c(Cl)cc1CNC1(C(=O)O)CC1 [B-116],0.064,35.5
COc1cc(-c2cccc(-c3cccc4c3CC[C@@H]4Oc3nc(OC)c(CN4CC[C@@H]5C[C@@]54C(=O)O)cc3C(F)(F)F)c2Cl)ccc1CNC[C@@H]1CCC(=O)N1 [B-117],0.064,0.813
COc1cc(-c2cccc(-c3cccc4c3CC[C@@H]4Oc3nc(OC)c(CN4CCC[C@@]4(C)C(=O)O)cc3C(F)(F)F)c2Cl)ccc1CNC[C@@H]1CCC(=O)N1 [B-118],0.064,0.988
COc1nc(-c2cccc(-c3cccc4c3CC[C@@H]4Oc3nc(OC)c(C(C)N4CC(C(=O)O)C4)cc3C(F)(F)F)c2Cl)ccc1CNC[C@@H]1CCC(=O)N1 (some centres unmarked) [B-119],0.064,24.5
COc1nc(-c2cccc(-c3cccc4c3CC[C@@H]4Oc3nc(OC)c(C(C)NCCC(=O)O)cc3C(F)(F)F)c2Cl)ccc1CNC[C@@H]1CCC(=O)N1 (some centres unmarked) [B-120],0.064,18.2
COc1cc(-c2cccc(-c3cccc4c3CC[C@@H]4Oc3nc(OC)c(CNC(C)(C)C(=O)O)cc3C(F)(F)F)c2Cl)ccc1CNC[C@@H]1CCC(=O)N1 [B-121],0.064,1.62

# The remaining compounds from weak to strong by IC50 (PD-1/PD-L1), led by results:
IC50 (PD-1/PD-L1) [nM],AC50 (PD-L1) [nM],SMILES
0.387,85,CNC(=O)CCNCc1ccc(-c2cccc(-c3cccc4c3CC[C@@H]4Oc3nc(OC)c(CNCCC(=O)NC)cc3Cl)c2Cl)nc1OC [B-89]
0.234,58.5,COc1nc(-c2cccc(-c3cccc4c3SC[C@@H]4Oc3nc(OC)c(CNC[C@@H]4CCC(=O)N4)cc3Cl)c2Cl)ccc1CNC[C@@H]1CCC(=O)N1 [B-103]
0.201,64.8,CNC(=O)C1CN(Cc2cc(Cl)c(O[C@H]3CCc4c(-c5cccc(-c6ccc(CNC[C@@H]7CCC(=O)N7)c(OC)n6)c5Cl)cccc43)nc2OC)C1 [B-101]
0.146,80.6,COc1nc(-c2cccc(-c3cccc4c3CC[C@@H]4Oc3nc(OC)c(CN4CC(C)(O)C4)cc3Cl)c2Cl)ccc1CNC[C@@H]1CCC(=O)N1 [B-102]
0.111,54.3,COc1nc(-c2cccc(-c3cccc4c3CC[C@@H]4Oc3nc(OC)c(CN4CC5CCC4C(C(=O)O)C5)cc3Cl)c2Cl)ccc1CNC[C@@H]1CCC(=O)N1 (some centres unmarked) [B-98]
0.068,103,COC(=O)[C@H]1[C@@H]2CN(Cc3cc(Cl)c(O[C@H]4CCc5c(-c6cccc(-c7ccc(CNC[C@@H]8CCC(=O)N8)c(OC)n7)c6Cl)cccc54)nc3OC)C[C@@H]21 [B-94]
0.064,46.9,COc1nc(O[C@H]2CCc3c(-c4cccc(-c5cnc(CNC[C@@H]6CCC(=O)N6)c(OC)n5)c4C)cccc32)c(Cl)cc1CN1CC2(C(=O)O)CCC1CC2 [B-80]
0.064,118,COc1nc(O[C@H]2CCc3c(-c4cccc(-c5cnc(CNC[C@@H]6CCC(=O)N6)c(OC)n5)c4C)cccc32)c(Cl)cc1CN1CC[C@@H](C(=O)O)C1 [B-81]
0.064,37.8,COc1nc(-c2cccc(-c3cccc4c3CC[C@@H]4Oc3nc(OC)c(CN4CCN(C)C(C(=O)O)C4)cc3Cl)c2Cl)ccc1CNC[C@@H]1CCC(=O)N1 (some centres unmarked) [B-82]
0.064,211,COc1nc(-c2cccc(-c3cccc4c3CC[C@@H]4Oc3nc(OC)c(CN4C[C@@H]5CCC[C@]5(C(=O)O)C4)cc3Cl)c2Cl)ccc1CN1CC(C)(O)C1 [B-83]
0.064,54.5,COc1nc(-c2cccc(-c3cccc4c3CC[C@@H]4Oc3nc(OC)c(CN4C[C@@H]5CCC[C@]5(C(=O)O)C4)cc3Cl)c2Cl)ccc1CNC[C@@H]1CCC(=O)N1 [B-92]
0.064,66.4,COc1nc(O[C@H]2CCc3c(-c4cccc(-c5cnc(CNC[C@@H]6CCC(=O)N6)cn5)c4Cl)cccc32)c(Cl)cc1CN1CC[C@@H](C(=O)O)C1 [B-97]
0.064,20.1,COc1nc(-c2cccc(-c3cccc4c3CC[C@@H]4Oc3nc(OC)c(CN4C[C@@H](C)[C@H](C(=O)O)C4)cc3Cl)c2Cl)ccc1CNC[C@@H]1CCC(=O)N1 [B-107]
0.064,20.7,COc1nc(-c2cccc(-c3cccc4c3CC[C@@H]4Oc3nc(OC)c(CN4CC[C@H](C(=O)O)C4)cc3Cl)c2Cl)ccc1CNC[C@@H]1CCC(=O)N1 [B-114]
